From ChEMBL document CHEMBL2331268, “The interaction of imidazole-, imidazolium-, and tetrazolium-containing compounds with DNA” (Bioorg Med Chem Lett, 2013)
Active and inactive are the calls of the source. No cut-off for these calls is given here.

What was measured:
[1] = Displacement of SYBR green I from salmon testes DNA assessed as compound treated with DNA followed by SYBR green I added relative to control; set-up: species or system Salmonidae
Salmonidae [2] = experiment: Displacement of SYBR green I from salmon testes DNA assessed as SYBR green I treated with DNA followed by compound added relative to control
Salmonidae [3] = experiment: Displacement of SYBR green I from salmon testes DNA assessed as compound treated with SYBR green I followed by DNA added relative to control

Row | SMILES | IC50 [1] [µM] | Activity (Salmonidae [2]) | Activity (Salmonidae [3])
1 | c1cn(CCCCCCn2ccnc2)cn1 | > 2500 |  | 
2 | c1cn(CCCCn2ccnc2)cn1 | > 2500 |  | 
3 | Brc1ccc(C[n+]2ccn(Cc3ccccc3)c2)cc1 | > 2500 |  | 
4 | C[n+]1ccn(CCCCCCCCCCCCn2cc[n+](C)c2)c1 | > 2500 |  | 
5 | c1ccc(C[n+]2ccn(-c3ccc(-c4ccc(-n5cc[n+](Cc6ccccc6)c5)cc4)cc3)c2)cc1 | 370 |  | 
6 | C[n+]1ccn(CCCCCCCCCCCCCCCn2cc[n+](C)c2)c1 | > 2500 | Active | 
7 | C[n+]1ccn(CCCCCCCCCCCCCCCCCCn2cc[n+](C)c2)c1 | 7.4 |  | 
8 | c1ccc(-c2nn(-c3ccccc3)[n+](-c3ccc(-c4ccc(-[n+]5nc(-c6ccccc6)nn5-c5ccccc5)cc4)cc3)n2)cc1 [NEOTETRAZOLIUM CHLORIDE] | 66 |  | 
9 | c1cn(CCCCCCCCCCCCCCCCCCCCn2ccnc2)cn1 | > 2500 |  | 
10 | Clc1ccc(Cn2cc[n+](Cc3ccc(Cl)cc3)c2)cc1 | > 2500 |  | 
11 | c1cn(CCCCCCCCCCCCn2ccnc2)cn1 | > 2500 |  | 
12 | c1cn(CCCCCCCCCCCCCCCCn2ccnc2)cn1 | 52 | Active | 
13 | C[n+]1ccn(CCCCCCCCCCCCCCn2cc[n+](C)c2)c1 | 1210 |  | 
14 | C[n+]1ccn(CCCCn2cc[n+](C)c2)c1 | > 2500 |  | 
15 | c1cn(Cc2ccc(-c3ccc(Cn4ccnc4)cc3)cc2)cn1 | > 2500 |  | 
16 | C[n+]1ccn(-c2ccc(-c3ccc(-n4cc[n+](C)c4)cc3)cc2)c1 | 423 |  | 
17 | c1cn(-c2ccc(-n3ccnc3)cc2)cn1 | > 2500 |  | 
18 | C[n+]1ccn(CCCCCCCCCCCCCCCCCCCCn2cc[n+](C)c2)c1 | 8 |  | 
19 | CC[n+]1ccn(CCCCCCCCCCCCn2cc[n+](CC)c2)c1 | > 2500 |  | 
20 | C[n+]1ccn(-c2ccc(-n3cc[n+](C)c3)cc2)c1 | > 2500 |  | 
21 | C[n+]1ccn(CCCCCCCCCCCCCCCCn2cc[n+](C)c2)c1 | 30 | Active | Active
22 | Clc1ccccc1Cn1cc[n+](Cc2ccccc2Cl)c1 | > 2500 |  | 
23 | C[n+]1ccn(CCCOc2ccc(OCCCn3cc[n+](C)c3)cc2)c1 | > 2500 |  | 
24 | C[n+]1ccn(CCCCCCCCCCCn2cc[n+](C)c2)c1 | > 2500 |  | 
25 | COc1cc(-c2ccc(-n3nc(-c4ccc([N+](=O)[O-])cc4)n[n+]3-c3ccc([N+](=O)[O-])cc3)c(OC)c2)ccc1-n1nc(-c2ccc([N+](=O)[O-])cc2)n[n+]1-c1ccc([N+](=O)[O-])cc1 | 34 |  | 

Row | SMILES | IC50 [1] [µM] | Activity (Salmonidae [2]) | Activity (Salmonidae [3])
26 | Brc1cccc(Cn2cc[n+](Cc3cccc(Br)c3)c2)c1 | > 2500 |  | 
27 | Brc1ccc(Cn2cc[n+](Cc3ccc(Br)cc3)c2)cc1 | > 2500 |  | 
28 | c1cn(CCCCCCCCn2ccnc2)cn1 | > 2500 |  | 
29 | c1cn(CCCCCCCCCCn2ccnc2)cn1 | > 2500 |  | 
30 | c1cn(-c2ccc(-c3ccc(-n4ccnc4)cc3)cc2)cn1 | > 2500 |  | 
31 | c1cn(CCCCCCCCCCCCCn2ccnc2)cn1 | 186 |  | 
32 | COc1cc(-c2ccc(-n3nc(-c4ccccc4)n[n+]3-c3ccccc3)c(OC)c2)ccc1-n1nc(-c2ccccc2)n[n+]1-c1ccccc1 [TETRAZOLIUM BLUE CHLORIDE] | > 2500 |  | 
33 | C[n+]1ccn(CCCCCCn2cc[n+](C)c2)c1 | > 2500 |  | 
34 | c1ccc(-c2nn(-c3ccccc3)[n+](-c3cccc4ccccc34)n2)cc1 [TETRAZOLIUM VIOLET] | > 2500 |  | 
35 | C[n+]1ccn(Cc2ccc(-c3ccc(Cn4cc[n+](C)c4)cc3)cc2)c1 | > 2500 |  | 
36 | C[n+]1ccn(CCCCCCCCn2cc[n+](C)c2)c1 | > 2500 |  | 
37 | c1ccc2cc(Cn3cc[n+](Cc4ccc5ccccc5c4)c3)ccc2c1 | > 2500 |  | 
38 | c1cn(CCCCCCCCCCCn2ccnc2)cn1 | > 2500 |  | 
39 | O=[N+]([O-])c1ccc(-n2nc(-c3ccccc3)n[n+]2-c2ccc(I)cc2)cc1 [IODONITROTETRAZOLIUM CHLORIDE] | > 2500 |  | 
40 | C[n+]1ccn(CCCCCCCCCCn2cc[n+](C)c2)c1 | > 2500 |  | 
41 | COc1cc(-c2ccc(-[n+]3nc(-c4ccccc4)nn3-c3ccc([N+](=O)[O-])cc3)c(OC)c2)ccc1-[n+]1nc(-c2ccccc2)nn1-c1ccc([N+](=O)[O-])cc1 [NITROBLUE TETRAZOLIUM CHLORIDE] | 360 |  | 
42 | c1ccc(-c2nn(-c3ccccc3)[n+](-c3ccccc3)n2)cc1 [TETRAZOLIUM RED] | > 2500 |  | 
43 | O=[N+]([O-])c1ccc(Cn2cc[n+](Cc3ccc([N+](=O)[O-])cc3)c2)cc1 | 0.3 |  | 
44 | c1cn(CCCCCCCCCCCCCCn2ccnc2)cn1 | > 2500 |  | 
45 | C[n+]1ccn(CCCCCCCCCCCCCn2cc[n+](C)c2)c1 | 25.2 |  | 
46 | Ic1ccc(Cn2cc[n+](Cc3ccc(I)cc3)c2)cc1 | > 2500 |  | 
47 | O=[N+]([O-])c1ccc(C[n+]2ccn(-c3ccc(-c4ccc(-n5cc[n+](Cc6ccc([N+](=O)[O-])cc6)c5)cc4)cc3)c2)cc1 | 0.4 |  | 
48 | c1cn(CCCCCCCCCCCCCCCCCCn2ccnc2)cn1 | 58 |  | Active
49 | CCC[n+]1ccn(CCCCCCCCCCCCn2cc[n+](CCC)c2)c1 | 109 |  | 
50 | c1cn(CCCCCCCCCCCCCCCn2ccnc2)cn1 | > 2500 |  | 
